For series [1] the following is noted: treprostinil as the free acid, cited from earlier work.
The test system of a further series is PAH patients. The conditions noted are these: inhaled form; cited from earlier work.
A short description of series [2]: Human liver microsomal stability assay (Test 1). The class given is in vitro ADME. The conditions noted are these: half-life in human liver microsomes, 0.5 μM test compound, 37° C., up to 45 min, NADPH-generating system, pH 7.4; read-out: Test 1 T1/2. On the procedure: (Test 1) Human liver microsomal stability assay was conducted by incubating 0.5 μM test compound at 37° C. for up to 45 minutes in 50 mM potassium phosphate buffer (pH 7.4) containing 0.5 mg of microsomal protein and 50 μL of NADPH-generating system (7.8 mg of glucose 6-phosphate, 1.7 mg of NADPH and 6 U of glucose 6-phosphate dehydrogenase per mL in 2% w/v of sodium bicarbonate). At 0, 5, 15, 30 and 45 min, an aliquot was taken and quenched with internal standard-containing stop solution. No co-factor controls at 45 min were prepared. After incubation, the samples were analyzed by LC-MS/MS. Peak area ratios of analyte to internal standard were used to calculate the intrinsic clearance. The intrinsic clearance (CLint) was determined from the first-order elimination constant by non-linear regression.
(Liver microsomes are a subcellular fraction often used to study metabolism.)

Series [3] can be described thus: Human plasma stability assay (Test 2). It counts as in vitro ADME. The settings on record: half-life in heparinated human plasma, 0.5 μM test compound, 37° C.; read-out: Test 2 T1/2. How it is done:
(Test 2) Human plasma stability assay was conducted by incubating 0.5 μM test compound at 37° C. for up to 120 min in heparinated human plasma. At 0, 5, 15, 30, 60, 120 and […], an aliquot was taken and quenched with internal standard-containing stop solution. After incubation, the samples were analyzed by LC-MS/MS. Peak area ratios of analyte to internal standard were used to calculate the half-life.

Series [4] in a line: Human skin homogenate stability assay (Test 3). The class given is in vitro ADME. The conditions noted are these: half-life in human skin homogenate, 0.5 μM test compound, 37° C., up to 45 min, NADPH-generating system, pH 7.4; read-out: Test 3 T1/2. On the procedure:
At 0, 5, 15, 30 and 45 min, an aliquot was taken and quenched with internal standard-containing stop solution. No co-factor controls at 45 min were prepared. After incubation, the samples were analyzed by LC-MS/MS. Peak area ratios of analyte to internal standard were used to calculate the intrinsic clearance. The intrinsic clearance (CLin t) was determined from the first-order elimination constant by non-linear regression.

Each structure is given as a SMILES string.

Consider `CCCCC[C@H](O)CC[C@@H]1[C@H]2Cc3cccc(OCC(=O)O)c3C[C@H]2C[C@H]1O` [Compound A, Treprostinil], for which, in series [1] (oral), the absolute oral bioavailability entry is reported as “less than 10%”. Moreover, the systemic half-life entry in series [1] (due to significant metabolism) is recorded as “very short”. The “PAH patients who cannot take inhaled treprostinil due to irritation” value in the series on PAH patients is “about 50%”.
As to `CCCCC[C@H](O)CC[C@@H]1[C@H]2Cc3cccc(OCC(=O)O)c3C[C@H]2C[C@H]1OC(=O)CC` [Compound Ia-1], the results for the half-life at 0.5 μM in series [2], in series [3] and in series [4] were < 15 min, > 60 min and > 60 min, respectively.
`CCCCC[C@H](O)CC[C@@H]1[C@H]2Cc3cccc(OCC(=O)O)c3C[C@H]2C[C@H]1OC(=O)OC` [Compound Ia-10, [1-(3-hydroxyoctyl)-2-methoxycarbonyloxy-2,3,3a,4,9,9a-hexahydro-1H-cyclopenta[b]naphthalen-5-yloxy]acetic acid]: the half-life at 0.5 μM in series [2] is < 15 min; in series [3], > 60 min; in series [4], > 60 min.
Turning to `CCCCC[C@@H](CC[C@@H]1[C@H]2Cc3cccc(OCC(=O)O)c3C[C@H]2C[C@H]1O)OC(=O)COC` [Compound Ib-8, {2-hydroxy-1-[3-(2-methoxyacetoxy)octyl]-2,3,3a,4,9,9a-hexahydro-1H-cyclopenta[b]naphthalen-5-yloxy}acetic acid], the half-life at 0.5 μM is < 15 min in series [2], > 60 min in series [3] and > 60 min in series [4].
For the molecule `CCCCC[C@H](O)CC[C@@H]1[C@H]2Cc3cccc(OCC(=O)OCC(=O)O)c3C[C@H]2C[C@H]1O` [II-1], the half-life at 0.5 μM was 31 to 60 min in series [2], > 60 min in series [3] and > 60 min in series [4].
Consider `CCCCC[C@H](O)CC[C@@H]1[C@H]2Cc3cccc(OCC(=O)O[C@H](C)C(=O)O)c3C[C@H]2C[C@H]1O` [II-2], for which the results for the half-life at 0.5 μM in series [2], in series [3] and in series [4] were 31 to 60 min, > 60 min and > 60 min, respectively.
As to `CCCCCC(O)CCC1C(O)CC2Cc3c(cccc3OCC(=O)OCCC(=O)O)CC21` (stereo not drawn) [II-4, 3-{2-[2-hydroxy-1-(3-hydroxyoctyl)-2,3,3a,4,9,9a-hexahydro-1H-cyclopenta[b]naphthalen-5-yloxy]acetoxy}propionic acid], the values for the half-life at 0.5 μM in series [2], in series [3] and in series [4] were 15 to 30 min, > 60 min and > 60 min, respectively.
Consider `CCCCC[C@H](O)CC[C@@H]1[C@H]2Cc3cccc(OCC(=O)O)c3C[C@H]2C[C@H]1OC(=O)CCCC` [Ia-3], for which the half-life at 0.5 μM is < 15 min in series [2], > 60 min in series [3] and > 60 min in series [4].
Consider `CCCCC[C@H](O)CC[C@@H]1[C@H]2Cc3cccc(OCC(=O)O)c3C[C@H]2C[C@H]1OC(=O)COCC` [Ia-9], for which the half-life at 0.5 μM in series [2] is < 15 min; in series [3], > 60 min; in series [4] it was > 60 min.

The record behind these values is patent publication US12643847B2, “Treprostinil derivatives and compositions and uses thereof” (CORSAIR PHARMA, INC., priority 2015, dated 2026).
